Laboratory results published in patent publication US20230087844A1, “USE OF N2-QUINCLINE OR ISOQUINOLINE SUBSTITUTED PURINE DERIVATIVES IN CANCER TREATMENT” (SHANGHAI HUAYU BIOTECHNOLOGY CO., LTD., priority 2020, published 2023).
Marks after values point to notes of the source that are not given here.

How the values were obtained:
[1] = system: SGC-7901 human gastric cancer cells; test: SGC-7901 gastric cancer xenograft in mice; settings: 5 mg/kg I.P., D0, 6
Experimental: Mice body weights and tumor sizes were measured 2 to 3 times a week. The tumor volume (V) was calculated as (length× width^2)/2. T/C (%) was calculated as (T-T0)/(C-C0)×100, wherein T and C represented the tumor volumes in the administration group and the vehicle group respectively at the end of the experiment, while T0 and C0 represented the tumor volumes in the administration group and the vehicle group respectively at the beginning of the experiment. And RTV was calculated as (Tumor volume at Day N/Tumor volume at Day 0).
BALB/cA-nude mice, 5-6 weeks old, purchased from Shanghai SLAC Laboratory Animal Co., Ltd, were subcutaneously inoculated with SGC-7901 human gastric cancer cells (from Cell Bank, Chinese Academy of Sciences).
(§7) Mice body weights and tumor sizes were measured 2 to 3 times a week. The tumor volume, T/C and RTV were calculated as described above. Mice were sacrificed on Day 18.

[2] = system: A549 human non-small cell lung cancer cells; test: A549 non-small cell lung cancer xenograft in mice; settings: 5 mg/kg I.P., D0, 3
Experimental: Mice body weights and tumor sizes were measured 2 to 3 times a week. The tumor volume (V) was calculated as (length× width^2)/2. T/C (%) was calculated as (T-T0)/(C-C0)×100, wherein T and C represented the tumor volumes in the administration group and the vehicle group respectively at the end of the experiment, while T0 and C0 represented the tumor volumes in the administration group and the vehicle group respectively at the beginning of the experiment. And RTV was calculated as (Tumor volume at Day N/Tumor volume at Day 0). Mice were sacrificed on Day-14.
BALB/cA-nude mice, 5-6 weeks old, purchased from Shanghai SLAC Laboratory Animal Co., Ltd, were subcutaneously inoculated with A549 human non-small cell lung cancer cells (from ATCC).
as §7

[3] = system: Colon26 murine colon cancer cells; test: Colon26 colon cancer growth in mice; format: in vivo, F1 mice; settings: for TGI / Tumor weight: Day 8
Experimental: F1 mice, 18-22 g, purchased from Shanghai Bi-Kai Laboratory Animal Co., Ltd, were subcutaneously inoculated with Colon26 murine colon cancer cells (from Cell Bank, Chinese Academy of Sciences) at the right axilla. […] Tumor growth inhibition (TGI) was calculated.

H69 = test: Tumor cell death by MTT, H69; format: cell-based, human; settings: 10 μM
Experimental: (§1) The in vitro inhibitory effect of Compound A alone or in combination with a PARP inhibitor on tumor cell growth was tested using human small cell lung cancer (SCLC) cell lines, including H69 (ATCC® HTB-119™), H526 (ATCC® CRL-5811™) and H446 (TCHu196, National Collection of Authenticated Cell Cultures).
(§2) Briefly, the cells were seeded into a 96-well dish with RPMI-1640 (10-040-CV, Coming cellgro) containing 10% fetal bovine serum (10270-106, GIBCO), 1% penicillin and 1% streptomycin (BaSalMedia, S110JV), at an initial density of 3×10^3 cells per well ([…]), and cultured at a 37° C., 5% CO2 humidified incubator for 24 hours. Then, the culture media were added with Compound A (final concentration at 20 nM), olaparib (APEXBIO, A4154, a PARP inhibitor, final concentration at 10 μM), Compound A + olaparib (final concentrations at20 nM and 10 μM), or PBS (vehicle), respectively, and the cells were cultured for 48 hours. Then, cell viability was determined by MTT. The test was done in triplicate.
(§3) Cell death rate was calculated by the following formula.
(§4) Cell death rate=[1−(ODtest-ODvehicle)]×100%
(§5) Cell death rates were analyzed using student's t-test, and group differences were deemed statistically significant when the p-value was lower than 0.05. Zheng-Jun Jin's Q value was calculated using the formula Q=EA+B/(EA+EB-EA×EB) to assess the combined effect of Compound A and the PARP inhibitor, wherein EA+B, EA, and EB referred to the cell death rates caused by the combined treatment, Compound A treatment and PARP inhibitor treatment, respectively. A Q value higher than 1.15 meant a synergistic […] effect.
(§6) Another PARP inhibitor, rucaparib (APEXBIO, A4156), was tested alone or with Compound A for inhibitory effect on tumor cell growth, following the protocol of Example 9.

H526 = test: Tumor cell death by MTT, H526; format: cell-based, human; settings: 10 μM
Experimental: as §1, §2, §3, §4, §5, §6

H446 = test: Tumor cell death by MTT, H446; format: cell-based, human; settings: 10 μM
Experimental: as §1, §2, §3, §4, §5, §6

MV-4-11 cells [4] = test: MV-4-11 AML xenograft in mice, combination with daunorubicin (Example 8); format: in vivo, BALB-cA nude mice; settings: 2 mg/kg I.V., D0-10
Experimental: Mice body weights and tumor sizes were measured twice a week. The tumor volume, T/C and TGI (Tumor growth inhibition=(average tumor volume in vehicle group-average tumor volume in administration group)/average tumor volume in vehicle group ×100%) were calculated. Mice were sacrificed on Day 21. Female BALB-cA nude mice, 6-7 weeks old, purchased from Shanghai Ling-chang Biotech Co., Ltd, were subcutaneously inoculated with MV-4-11 cells (from ATCC). […] Mice body weights and tumor sizes were measured twice a week. The tumor volume, T/C and tumor volume based TGI were calculated as described above. Mice were sacrificed on Day 11.

MV-4-11 cells [5] = test: MV-4-11 AML xenograft in mice (Example 7); format: in vivo, BALB-cA nude mice; settings: D0-20; for Complete remission: number of mice, N 6
Experimental: Mice body weights and tumor sizes were measured twice a week. The tumor volume, T/C and TGI (Tumor growth inhibition=(average tumor volume in vehicle group-average tumor volume in administration group)/average tumor volume in vehicle group ×100%) were calculated. Mice were sacrificed on Day 21.

[6] = system: Ls-174t human colon cancer cells; test: Ls-174t colon cancer xenograft in mice; format: in vivo, BALB/cA-nude mice; settings: 153 mg/kg I.P., D0-4, 7-11
Description: Mice were sacrificed on Day-14.

[7] = system: S180 murine sarcoma cancer cells; test: S180 sarcoma growth in mice; settings: 30 mg/kg I.P., D1-7
Experimental: On Day 8, the mice were weighed and sacrificed, and the tumors were collected and weighed.
Tumor growth inhibition (TGI) was calculated by the following formula. Tumor growth inhibition=(average tumor weight in vehicle group-average tumor weight in administration group)/average tumor weight in vehicle group×100%

## N.N.[Cl][Pt][Cl] [Cisplatin, cisplatin, reference compound]
[1]
  Body weight (with tumor) D0: 18.4 g
  Body weight (with tumor) D18: 16.0 g
  RTV at D18: 2.85 ± 1.52
  Tumor volume D0: 127 ± 24 mm^3
  Tumor volume D18: 366 ± 201 mm^3
[1]; D18
  T/C: 34.9* %
[2]
  Body weight (with tumor) D0: 16.7 g
  Body weight (with tumor) D18: 15.3 g
  RTV at D18: 8.89 ± 5.39
  Tumor volume D0: 110 ± 12 mm^3
  Tumor volume D18: 944 ± 536 mm^3
[2]; D18
  T/C: 33.7* %

## Nc1ccn([C@@H]2O[C@H](CO)[C@@H](O)C2(F)F)c(=O)n1 [Gemcitabine, gemcitabine]
[3]; 10 mg/kg I.V., D1
  Body weight (without tumor) at D8: 22.31 g
  TGI: 57.51%
  Tumor weight: 0.86 g
[3]; 20 mg/kg IV, D1
  Body weight (without tumor) at D8: 22.35 g
  TGI: 81.53%
  Tumor weight: 0.38 g

## CNCc1ccc(-c2[nH]c3cc(F)cc4c3c2CCNC4=O)cc1 [Rucaparib, rucaparib, reference compound]
H69; Example 10, Table 11
  Cell Death Rate/% 1: 7.51%
  Cell Death Rate/% 2: 7.3%
  Cell Death Rate/% 3: 8.11%
  Cell Death Rate/% mean: 7.64%
H526; Example 10, Table 11
  Cell Death Rate/% 1: 6.73%
  Cell Death Rate/% 2: 6.57%
  Cell Death Rate/% 3: 6.19%
  Cell Death Rate/% mean: 6.50%
H446; Example 10, Table 11
  Cell Death Rate/% 1: 14%
  Cell Death Rate/% 2: 13.79%
  Cell Death Rate/% 3: 14.48%
  Cell Death Rate/% mean: 14.09%

## O=C(c1cc(Cc2n[nH]c(=O)c3ccccc23)ccc1F)N1CCN(C(=O)C2CC2)CC1 [Olaparib, olaparib, reference compound]
H69; 48 hours, Table 10
  Cell Death Rate/% 1: 6%
  Cell Death Rate/% 2: 6.25%
  Cell Death Rate/% 3: 6.54%
  Cell Death Rate/% mean: 6.26%
H526; 48 hours, Table 10
  Cell Death Rate/% 1: 5.25%
  Cell Death Rate/% 2: 4.92%
  Cell Death Rate/% 3: 5.13%
  Cell Death Rate/% mean: 5.10%
H446; 48 hours, Table 10
  Cell Death Rate/% 1: 12.01%
  Cell Death Rate/% 2: 12.55%
  Cell Death Rate/% 3: 12.24%
  Cell Death Rate/% mean: 12.27%

## COc1cccc2c1C(=O)c1c(O)c3c(c(O)c1C2=O)C[C@@](O)(C(C)=O)C[C@@H]3O[C@H]1C[C@H](N)[C@H](O)[C@H](C)O1 [Daunorubicin, daunorubicin, reference compound]
MV-4-11 cells [4]; D11
  T/C: 38%
  TGI: 62%
MV-4-11 cells [4]; in mm³
  Tumor volume D0: 152.9
  Tumor volume D11: 1167.3

## CC[C@H](Nc1ncnc2[nH]cnc12)c1nc2cccc(F)c2c(=O)n1-c1ccccc1 [CAL 101, reference compound]
MV-4-11 cells [5]; 90 mg/kg P.O.
  T/C (%) D21: 50%
  TGI (%) D21: 50%
  Tumor volume D0: 79.6 ± 3.1 mm^3
  Tumor volume D21: 442.2 ± 93.8 mm^3
  Complete remission: 0
MV-4-11 cells [5]; 180 mg/kg P.O.
  T/C (%) D21: 39%
  TGI (%) D21: 61%
  Tumor volume D0: 78.9 ± 1.9 mm^3
  Tumor volume D21: 361.7 ± 93.8 mm^3
  Complete remission: 0

## Nc1nc2[nH]cc(CCc3ccc(C(=O)N[C@@H](CCC(=O)O)C(=O)O)cc3)c2c(=O)[nH]1 [Pemetrexed disodium, pemetrexed disodium, reference compound]
[6]
  Body weight (without tumor) D0: 24.0 g
  Body weight (without tumor) D14: 15.3 g
  RTV at D14: 9.14 ± 2.86
  Tumor volume D0: 138 ± 33 mm^3
  Tumor volume D14: 1209 ± 244 mm^3
[6]; D14
  T/C: 43.3* %

## O=P1(N(CCCl)CCCl)NCCCO1 (stereo not drawn) [CTX, cyclophosphamide, reference compound]
[7]
  Body weight (without tumor) D1: 21.8 g
  Body weight (without tumor) D8: 26.8 g
  Tumor weight on Day 8: 0.60 ± 0.18 g
[7]; tumor weight, Day 8
  TGI: 68.8* %
[3]; 30 mg/kg I.V., D1-7
  Body weight (without tumor) at D8: 21.22 g
  TGI: 79.00%
  Tumor weight: 0.43 g
